Data published in patent US20190119298A1, “FUSED 3-PHENYLTETRAMIC ACID DERIVATIVES HAVING HERBICIDAL ACTION” (Bayer CropScience Aktiengesellschaft, priority 2016, published 2019).

Key:
Format in all cases: in vivo
Alopecurus myosuroides = assay: Pre-emergence herbicidal effect; conditions: 320 g/ha, scored visually after 3 weeks vs untreated controls, 100% = plants have died
Description: (§1) Seeds of monocotyledonous and dicotyledonous weed plants and crop plants are laid out in sandy loam soil in wood-fibre pots and covered with soil. The compounds of the invention, formulated in the form of wettable powders (WP) or as emulsion concentrates (EC), are then applied to the surface of the covering soil as aqueous suspension or emulsion at a water application rate equating to 600 to 800 L/ha with addition of 0.2% wetting agent. After the treatment, the pots are placed in a greenhouse and kept under good growth conditions for the trial plants. The damage to the test plants is scored visually after a test period of 3 weeks by comparison with untreated controls (herbicidal activity in percent (%): 100% activity=the plants have died, 0% activity=like control plants). ALOMY: Alopecurus myosuroides

Lolium multiflorum = assay: Pre-emergence herbicidal effect; conditions: 320 g/ha, scored visually after 3 weeks vs untreated controls, 100% = plants have died
Description: as §1, with “LOLMU: Lolium multiflorum” for “ALOMY: Alopecurus myosuroides”

Avena fatua [1] = assay: Post-emergence herbicidal effect; conditions: one-leaf stage, 320 g/ha, assessed visually after about 3 weeks, 100% = plants have died
Procedure: (§2) AVEFA: Avena fatua Seeds of monocotyledonous and dicotyledonous weed and crop plants are laid out in sandy loam soil in wood-fibre pots, covered with soil and cultivated in a greenhouse under good growth conditions. 2 to 3 weeks after sowing, the test plants are treated at the one-leaf stage. The compounds of the invention, formulated in the form of wettable powders (WP) or as emulsion concentrates (EC), are then sprayed onto the green parts of the plants as aqueous suspension or emulsion at a water application rate equating to 600 to 800 L/ha with addition of 0.2% wetting agent. After the test plants have been left to stand in the greenhouse under optimal growth conditions for about 3 weeks, the action of the preparations is assessed visually in comparison to untreated controls (herbicidal action in percent (%): 100% activity=the plants have died, 0% activity=like control plants).

Echinochloa crus-galli [2] = assay: Post-emergence herbicidal effect; conditions: one-leaf stage, 320 g/ha, assessed visually after about 3 weeks, 100% = plants have died
Procedure: as §2, with “ECHCG: Echinochloa crus-galli” for “AVEFA: Avena fatua”

Setaria viridis [3] = assay: Post-emergence herbicidal effect; conditions: one-leaf stage, 320 g/ha, assessed visually after about 3 weeks, 100% = plants have died
Procedure: as §2, with “SETVI: Setaria viridis” for “AVEFA: Avena fatua”

Setaria viridis [4] = assay: Pre-emergence herbicidal effect; conditions: 320 g/ha, scored visually after 3 weeks vs untreated controls, 100% = plants have died
Description: as §1, with “SETVI: Setaria viridis” for “ALOMY: Alopecurus myosuroides”

Echinochloa crus-galli [5] = assay: Pre-emergence herbicidal effect; conditions: 320 g/ha, scored visually after 3 weeks vs untreated controls, 100% = plants have died
Description: as §1, with “ECHCG: Echinochloa crus-galli” for “ALOMY: Alopecurus myosuroides”

Avena fatua [6] = assay: Pre-emergence herbicidal effect; conditions: 320 g/ha, scored visually after 3 weeks vs untreated controls, 100% = plants have died
Description: as §1, with “AVEFA: Avena fatua” for “ALOMY: Alopecurus myosuroides”

Row | Compound | Pre-emergence action ALOMY (herbicidal activity in percent) (Alopecurus myosuroides) | Pre-emergence action LOLMU (herbicidal activity in percent) (Lolium multiflorum) | Post-emergence effectiveness AVEFA (herbicidal action in percent) (Avena fatua [1]) | Post-emergence effectiveness ECHCG (herbicidal action in percent) (Echinochloa crus-galli [2]) | Post-emergence effectiveness SETVI (herbicidal action in percent) (Setaria viridis [3]) | Pre-emergence action SETVI (herbicidal activity in percent) (Setaria viridis [4]) | Pre-emergence action ECHCG (herbicidal activity in percent) (Echinochloa crus-galli [5]) | Pre-emergence action AVEFA (herbicidal activity in percent) (Avena fatua [6])
1 | COc1cc(C)cc(Cl)c1C1=C(O)C2CCOCCN2C1=O (centres unmarked) [Ia-1-8] | 90% | 100% |  |  |  |  |  | 
2 | Cc1cc(C)c(C2=C(O)C3=CCOCCN3C2=O)c(C)c1 [Ia-3-1] |  |  | 80% | 90% |  |  |  | 
3 | CCc1cc(C)cc(C)c1C1=C(O)C2=CCOCCN2C1=O [Ia-3-2] |  |  | 100% | 100% |  |  |  | 
4 | CCc1cc(C)cc(CC)c1C1=C(O)C2=CCOCCN2C1=O [Ia-3-3] | 80% | 100% |  | 100% | 100% |  |  | 
5 | CCc1cc(C)cc(CC)c1C1=C(OC(=O)OCCOC)C2CCOCCN2C1=O (centres unmarked) [Ib-1-5] | 100% | 100% |  |  |  | 100% | 100% | 100%
6 | COC(=O)OC1=C(c2c(Cl)cc(C)cc2OC)C(=O)N2CCOCCC12 (centres unmarked) [Ib-1-21] | 100% | 100% |  |  |  | 100% | 100% | 90%
7 | CCOC(=O)OC1=C(c2c(Cl)cc(C)cc2OC)C(=O)N2CCOCCC12 (centres unmarked) [Ib-1-22] | 90% | 100% |  |  |  | 100% | 100% | 100%
8 | COc1cc(C)cc(Cl)c1C1=C(OC(=O)C(C)(C)C)C2CCOCCN2C1=O (centres unmarked) [Ib-1-23] | 100% | 100% |  |  |  | 100% | 100% | 90%
9 | COc1cc(C)cc(Cl)c1C1=C(OC(C)=O)C2CCOCCN2C1=O (centres unmarked) [Ib-1-24] | 90% | 100% |  |  |  | 100% | 100% | 90%
10 | CCOC(=O)OC1=C(c2ccc(C)cc2OC)C(=O)N2CCOCCC12 (centres unmarked) [Ib-1-26] | 90% | 90% |  |  |  |  |  | 
11 | CC(=O)OC1=C(c2c(C)cc(C)cc2C)C(=O)N2CCCOCC12 (centres unmarked) [Ib-2-1] |  |  |  | 100% | 100% |  |  | 
12 | COC(=O)OC1=C(c2c(C)cc(C)cc2C)C(=O)N2CCCOCC12 (centres unmarked) [Ib-2-2] |  |  |  | 90% | 90% |  |  | 
13 | CCOC(=O)OC1=C(c2c(C)cc(C)cc2C)C(=O)N2CCCOCC12 (centres unmarked) [Ib-2-3] |  |  |  | 90% | 90% |  |  | 
14 | Cc1cc(C)c(C2=C(OC(=O)C(C)(C)C)C3COCCCN3C2=O)c(C)c1 (centres unmarked) [Ib-2-4] |  |  |  | 90% | 100% |  |  | 
15 | CCc1cc(C)cc(CC)c1C1=C(OC(=O)OC)C2COCCCN2C1=O (centres unmarked) [Ib-2-5] |  |  |  | 100% | 100% |  |  | 
16 | CCOC(=O)OC1=C(c2c(CC)cc(C)cc2CC)C(=O)N2CCCOCC12 (centres unmarked) [Ib-2-6] |  |  |  | 100% | 100% |  |  | 
17 | CCOC(=O)OC1=C(c2c(CC)cc(C)cc2CC)C(=O)N2CCOCC=C12 [Ib-3-2] |  |  |  | 80% | 90% |  |  | 
18 | CCc1cc(C)cc(CC)c1C1=C(OC(=O)C(C)(C)C)C2=CCOCCN2C1=O [Ib-3-3] |  |  |  | 90% | 100% |  |  | 
19 | CCc1cc(C)cc(C)c1C1=C(OC(=O)OC)C2=CCOCCN2C1=O [Ib-3-5] | 100% | 80% |  | 90% | 90% |  |  | 
20 | CCOC(=O)OC1=C(c2c(C)cc(C)cc2CC)C(=O)N2CCOCC=C12 [Ib-3-6] |  |  |  | 90% | 90% |  |  | 
21 | CCc1cc(C)cc(C)c1C1=C(OC(=O)C(C)(C)C)C2=CCOCCN2C1=O [Ib-3-7] |  |  |  | 90% | 100% |  |  | 
22 | CCOC(=O)OC1=C(c2c(CC)cc(Cl)cc2OC)C(=O)N2CCOCC=C12 [Ib-3-9] |  |  |  | 90% | 100% |  |  | 
23 | CCOC(=O)OC1=C(c2c(C)cc(Br)cc2C)C(=O)N2CCOCC=C12 [Ib-3-11] |  |  |  | 80% | 90% |  |  | 
24 | COc1cc(C)cc(Cl)c1C1=C(OC(C)=O)C2=CCOCCN2C1=O [Ib-3-13] | 100% | 100% |  |  |  | 100% | 100% | 90%
25 | COc1cc(C)cc(Cl)c1C1=C(OC(=O)C(C)(C)C)C2=CCOCCN2C1=O [Ib-3-16] | 90% | 90% |  |  |  | 90% | 80% | 
